Experimental findings from patent EP0402717A1, “5-nitro-tetrahydropyrimidines and insecticides containing them for agricultural uses” (NIHON BAYER AGROCHEM K.K., priority 1989, dated 1990) are described below.

The structures appear in SMILES notation.

What all share (type): in vivo
The test system of experiment [1] is NiIaparvata lugens Stal. As to the kind of experiment: Test on plant hoppers (spray on rice plants), brown rice planthopper. The note with it: 48 h, read-out: Mortality (%) Brown rice planthopper. Here is the method:
(§1) A water dilution in a predetermined concentration of the active compound prepared as in Example 4 was sprayed onto rice plants, about 10 cm tall, grown in pots with a diameter of 12 cm in an amount of 10 ml per pot. The sprayed chemical was dried, and a wire net, 7 cm in diameter and 14 cm tall, was put over each of the pots. […] The mortality was then calculated.

Experiment [2] relates to Laodelphax striatellus Fallen. As to the kind of experiment: Test on plant hoppers (spray on rice plants), small brown planthopper. The note with it: 48 h, read-out: Mortality (%) Small brown planthopper. Here is the method: as §1
(§2) In the same way as above, the mortality was calculated on Sogatella furcifera Horvath and organophosphorus-resistant Laodelphax striatellus Fallen.

Experiment [3] concerns Sogatella furcifera Horvath. Description: Test on plant hoppers (spray on rice plants), white-backed rice planthopper. Conditions: 48 h, read-out: Mortality (%) Whight bached rice planthopper. Here is the method: as §1, §2

In the case of `O=c1[nH]c(=O)n2c(c1[N+](=O)[O-])NCC2` [Compound C-2], the mortality at 500 ppm in experiment [1], in experiment [2] and in experiment [3] was 0% each time.

Take `CNC1=C([N+](=O)[O-])CN(C)CN1Cc1ccc(Cl)nc1` [Compound 8]: the mortality at 500 ppm in experiment [1], in experiment [2] and in experiment [3] was 100% throughout.

For the compound `CN1CCN2C(=O)CCC([N+](=O)[O-])=C12` [Compound C-1], the mortality at 500 ppm in experiment [1], in experiment [2] and in experiment [3] was 0% in each case.

On to `CCCCCCCCCCCCN1CC([N+](=O)[O-])=C(NC)N(Cc2ccc(Cl)nc2)C1` [Compound 41], for which the mortality at 500 ppm in experiment [1], in experiment [2] and in experiment [3] was 100% in each case.

Broadly, the mortality is the share of the test organisms that died.
